Experimental data from US6649635B2, “Heteroarylcarboxamide compounds active against protein tyrosine kinase related disorders” (Sugen, Inc., priority 1997, dated 2003).
Read-outs that look alike come from different tables or passages of the source.

Key:
FGFR = assay: FGF-induced DNA synthesis (BrdU incorporation) in 3T3/EGFRc7 cells; assay type: cell-based
Protocol: (§1) The following example illustrates the ability of the compounds of the invention to inhibit FGFR-stimulated and PDGFR-stimulated DNA synthesis in cells. DNA synthesis is required for many of the activities of FGFP and PDGFR including, but not limited to, cell proliferation. Uridine is added in one set of samples to overcome any contribution made by inhibition of DHOD and just evaluate the inhibition of PDGFR or FGFR signaling. (See Greene, et al., Biochem. Pharmacol., 50(6):861 (1995), Nair, et al., Immunology Letters, 47:171 (1995)).
(§2) (1) EGF: mouse EGF, 201; Toyobo,Co., Ltd. Japan; PDGF, Boehringer Mannheim, Germany; FGF, Gibco.
(§3) (2) BrdU Labeling Reagent: 10 mM, in PBS (pH7.4) Cat. No. 1 647 229, Boehringer Mannheim, Germany.
(§4) (3) FixDenat: fixation solution (ready to use), Cat. No. 1 647 229, Boehringer Mannheim, Germany.
(§5) (4) Anti-BrdU-POD: mouse monoclonal antibody conjugated with peroxidase, Cat. No. 1 647 229, Boehringer Mannheim, Germany.
(§6) (5) TMB Substrate Solution: tetramethylbenzidine (TMB), ready to use, Cat. No. 1 647 229, Boehringer Mannheim, Germany.
(§7) (6) PBS Washing Solution: 1×phosphate buffered saline, pH 7.4
(§8) (7) Albumin, Bovine (BSA): fraction V powder; A-8551, Sigma Chemical Co., USA.
(§9) (8) NIH3T3 clone C7 (3T3/EGFRc7)(Honegger et al., Cell 51:199-209, 1987)) engineered to over-express human EGF receptor.
(§10) These cells natively express FGFR and PDGFR.
(§11) (1) 3T3/EGFRc7 cells were seeded at 8000 cells/well in DMEM, 10% CS, 2 mM Gln in a 96 well plate. Cells are incubated overnight at 37 degrees C. in 5% CO2.
(§12) (2) After 24 hours, the cells were washed with PBS, and then serum starved in serum free medium (0%CS DMEM with 0.1% BSA) for 24 hours.
(3) On day 3, ligand (2n EGF or 1.5 nM FGF or 3.8 nM PDGF) prepared in DMEM with 0.1% BSA and 30 μM (final concentration) uridine) and test compound was added to the cells simultaneously.
The negative control wells received serum free DMEM with 0.1% BSA only; the positive control cells received ligand but no test compound. Test compound was prepared in serum free DMEM with ligand in a 96 well plate, and serially diluted for 7 test concentrations.
(4) After 20 hours of ligand activation, diluted BrdU labeling reagent (1:100 in DMEM, 0.1% BSA) was added and the cells were incubated with BrdU (final concentration=10 μM) for 1.5 hours.
(5) After incubation with labeling reagent, the medium was removed by decanting and tapping the inverted plate on a paper towel. FixDenat solution was added (50 μl/well) and the plates incubated at room temperature for 45 minutes on a plate shaker.
(6) The FixDenat solution was thoroughly removed by decanting and tapping the inverted plate on a paper towel. Milk is added (5% dehydrated milk in PBS, 200 μl/well) as a blocking solution and the plate was incubated for 30 minutes at room temperature on a plate shaker.
(7) The blocking solution was removed by decanting and the wells were washed once with PBS. Anti-BrdU-POD solution (1:100 dilution in PBS, 1% BSA) was added (100 μl/well) and the plate was incubated for 90 minutes at room temperature on a plate shaker.
(8) The antibody conjugate was thoroughly removed by decanting and rinsing the wells 5 times with PBS, and the plate dried by inverting and tapping on a paper towel.
(9) TMB substrate solution was added (100 μl/well) and incubated for 20 minutes at room temperature on a plate shaker until color development was sufficient for photometric detection.
(§13) (10) The absorbance of the samples was measured at 410 nm (in “dual wavelength” mode with a filter reading at 490 nm, as a reference wavelength) on a Dynatech ELISA plate reader.

PDGFR = assay: PDGF-induced DNA synthesis (BrdU incorporation) in 3T3/EGFRc7 cells; assay type: cell-based; details: 3.8 nM PDGF, read-out: PDGF-induced (inhibition of DNA synthesis)
Protocol: as §1, §2, §3, §4, §5, §6, §7, §8, §9, §10, §11, §12
(§14) (3) On day 3, ligand (2n EGF or 1.5 nM FGF or 3.8 nM PDGF) prepared in DMEM with 0.1% BSA and 30 μM (final concentration) uridine) and test compound was added to the cells simultaneously. […]
as §13

human EGF receptor = biological target: T1, human EGF receptor (Homo sapiens, UniProt P00533); assay: EGF-induced DNA synthesis (BrdU incorporation) in 3T3/EGFRc7 cells; assay type: cell-based; details: read-out: EGF-induced (inhibition of DNA synthesis)
T1 construct: expressed in transfected cells; host or cells: NIH3T3 clone C7 (3T3/EGFRc7)
T1 sequence (P00533 25-1210): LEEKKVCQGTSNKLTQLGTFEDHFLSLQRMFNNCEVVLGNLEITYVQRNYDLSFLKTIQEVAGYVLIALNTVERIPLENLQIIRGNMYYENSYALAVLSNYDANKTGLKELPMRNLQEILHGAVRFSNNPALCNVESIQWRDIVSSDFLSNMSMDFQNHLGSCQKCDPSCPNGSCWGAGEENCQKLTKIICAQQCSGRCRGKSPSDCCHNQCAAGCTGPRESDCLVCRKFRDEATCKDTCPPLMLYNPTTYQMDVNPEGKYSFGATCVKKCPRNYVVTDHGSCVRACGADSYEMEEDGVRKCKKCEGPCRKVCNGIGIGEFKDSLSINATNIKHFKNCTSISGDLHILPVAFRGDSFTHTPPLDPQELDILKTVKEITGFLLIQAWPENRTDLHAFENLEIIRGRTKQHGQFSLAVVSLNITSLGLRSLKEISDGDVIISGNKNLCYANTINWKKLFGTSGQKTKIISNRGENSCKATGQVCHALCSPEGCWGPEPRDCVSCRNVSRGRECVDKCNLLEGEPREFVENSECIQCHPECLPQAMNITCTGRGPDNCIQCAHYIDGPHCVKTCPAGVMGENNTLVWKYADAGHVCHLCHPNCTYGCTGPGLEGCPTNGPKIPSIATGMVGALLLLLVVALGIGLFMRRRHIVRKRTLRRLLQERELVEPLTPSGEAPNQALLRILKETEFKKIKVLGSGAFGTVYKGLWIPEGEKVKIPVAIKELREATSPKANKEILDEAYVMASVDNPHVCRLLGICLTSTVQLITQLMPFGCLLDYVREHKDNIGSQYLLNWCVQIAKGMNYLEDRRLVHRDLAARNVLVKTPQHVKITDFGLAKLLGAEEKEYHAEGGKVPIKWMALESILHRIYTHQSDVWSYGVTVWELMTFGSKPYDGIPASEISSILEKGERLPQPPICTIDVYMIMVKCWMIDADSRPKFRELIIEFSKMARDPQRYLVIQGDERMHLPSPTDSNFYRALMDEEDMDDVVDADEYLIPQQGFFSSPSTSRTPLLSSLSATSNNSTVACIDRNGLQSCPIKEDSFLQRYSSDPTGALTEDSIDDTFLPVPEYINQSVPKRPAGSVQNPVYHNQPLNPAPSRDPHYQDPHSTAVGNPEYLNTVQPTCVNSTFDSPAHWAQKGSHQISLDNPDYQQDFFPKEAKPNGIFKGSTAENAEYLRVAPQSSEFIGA
Protocol: as §1, §2, §3, §4, §5, §6, §7, §8, §9, §10, §11, §12, §14, §13

C6 cells (glioblastoma) = assay: Subcutaneous xenograft experiment, inhibition of tumor growth in vivo; details: for inhibition (% of control): 30 mg/kg/day IP in DMSO, tumor volume
Protocol: Female athymic mice (BALB/c, nu/nu) were obtained from Simonsen Laboratories (Gilroy, Calif.). All animals were maintained under clean-room conditions in Micro-isolator cages with Alpha-dri bedding. They received sterile rodent chow and water ad libitum.
Cell lines were grown in Ham's F10 plus 5% fetal bovine serum (FBS) and 2 mM glutamine (GLN). All cell culture media, glutamine, and fetal bovine serum were purchased from Gibco Life Technologies (Grand Island, N.Y.) unless otherwise specified. All cells were grown in a humid atmosphere of 90-95% air and 5-10% CO2 at 37° C. All cell lines were routinely subcultured twice a week and were negative for mycoplasma as determined by the Mycotect method (Gibco).
Cells were harvested at or near confluency with 0.05% Trypsin-EDTA and pelleted at 450×g for 10 min. Pellets were resuspended in sterile PBS or media (without FBS) and the cells were implanted into the hindflank of the mice (8-10 mice per group 3×10^6 cells/animal). Tumor growth was measured over 3 weeks using venier calipers. Tumor volumes were calculated as a product of length×width×height unless otherwise indicated. P values were calculated using the Students' t-test. Cmpd. 1 in 50 μL excipient (DMSO) was delivered by IP bolus injection daily.

[1] = 1.5 nM FGF, Table 2 experiment, read-out: FGF-induced (inhibition of DNA synthesis)
[2] = FGF induced DNA synthesis, with added uridine (30 μM), read-out: IC50 + uridine
[3] = FGF induced DNA synthesis, without added uridine, read-out: IC50 − uridine

Row | Compound | IC50 (FGFR; [1]) | IC50 (PDGFR) | IC50 (human EGF receptor) | IC50 (FGFR; [2]) | IC50 (FGFR; [3]) | also measured
1 | Cc1noc(C)c1C(=O)Nc1ccc(C(F)(F)F)cc1 [cmpd. 21, 3,5-Dimethyl-4-[4-(trifluoromethyl)phenylaminocarbonyl]isoxazole] | > 100 µM | > 100 µM | > 100 µM | – | – | –
2 | Cc1nocc1C(=O)Nc1ccc(C(F)(F)F)cc1 [cmpd. 1, 3-Methyl-4-[4-(trifluoromethyl)phenyl-aminocarbonyl]isoxazole] | 65 µM | 90 µM | > 100 µM | 70 µM | 85 µM | toxic effect at the dose tested (C6 cells (glioblastoma); 30 mg/kg/day IP, xenograft mice): no toxic effect; mortality (C6 cells (glioblastoma); Day 8, 30 mg/kg/day IP): 0; inhibition (% of control) (C6 cells (glioblastoma); Day 8): 34 % of control; mortality (C6 cells (glioblastoma); Day 10, 30 mg/kg/day IP): 0; inhibition (% of control) (C6 cells (glioblastoma); Day 10): 42 % of control; mortality (C6 cells (glioblastoma); Day 13, 30 mg/kg/day IP): 0; inhibition (% of control) (C6 cells (glioblastoma); Day 13): 48 % of control; mortality (C6 cells (glioblastoma); Day 15, 30 mg/kg/day IP): 0; inhibition (% of control) (C6 cells (glioblastoma); Day 15): 47 % of control; mortality (C6 cells (glioblastoma); Day 17, 30 mg/kg/day IP): 0; inhibition (% of control) (C6 cells (glioblastoma); Day 17): 50 % of control; mortality (C6 cells (glioblastoma); Day 20, 30 mg/kg/day IP): 0; inhibition (% of control) (C6 cells (glioblastoma); Day 20): 52 % of control
3 | Cc1oncc1C(=O)Nc1ccc(C(F)(F)F)cc1 [leflunomide, 4-(-(4′-trifluoromethylphenyl)carboxamido)-5-methyl-isoxazole] | – | – | – | 80 µM | 20 µM | –
4 | C/C(O)=C(\C#N)C(=O)Nc1ccc(C(F)(F)F)cc1 [A771726] | – | – | – | > 100 µM | 20 µM | –
5 | Cc1n[nH]cc1C(=O)Nc1ccc(C(F)(F)F)cc1 [cmpd. 2, 3-Methyl-4-[4-(trifluoromethyl)phenylaminocarbonyl]pyrazole] | > 100 µM | 95 µM | > 100 µM | – | – | –
6 | Cc1c(-c2ccc(-c3ccccc3F)cc2)nc2ccc(F)cc2c1C(=O)O [brequinar] | – | – | – | > 100 µM | 1.6 µM | –
